Measurements: ChEMBL document CHEMBL1201862, “PubChem BioAssay data set” (2004)
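The compound was tested at five concentrations on cells cultured in 96-well plates, with a 48-hour exposure period. GI50 is the concentration that inhibits growth by half.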 Calls of active or inactive are those of the source. No stated cut-off is given here; in the data, active = GI50 up to about 1.1 µM and inactive = higher.

Experiments:
Assay in all cases: DTP human tumour cell line panel, 48 h
SK-MEL-28 = tested on: SK-MEL-28
HOP-92 = tested on: HOP-92
NCI-H522 = tested on: NCI-H522
HT-29 = tested on: HT-29
CCRF-CEM = tested on: CCRF-CEM
UO-31 = tested on: UO-31
OVCAR-4 = tested on: OVCAR-4
ACHN = tested on: ACHN
IGROV-1 = tested on: IGROV-1
SN12C = tested on: SN12C
OVCAR-8 = tested on: OVCAR-8
MOLT-4 = tested on: MOLT-4
HCC 2998 = tested on: HCC 2998
SF-295 = tested on: SF-295
TK-10 = tested on: TK-10
LOX IMVI = tested on: LOX IMVI
EKVX = tested on: EKVX
HOP-62 = tested on: HOP-62
SNB-75 = tested on: SNB-75

| Compound | GI50 (SK-MEL-28) | GI50 (HOP-92) | GI50 (NCI-H522) | GI50 (HT-29) | GI50 (CCRF-CEM) | GI50 (UO-31) | GI50 (OVCAR-4) | GI50 (ACHN) | GI50 (IGROV-1) | GI50 (SN12C) | GI50 (OVCAR-8) | GI50 (MOLT-4) | GI50 (HCC 2998) | GI50 (SF-295) | GI50 (TK-10) | GI50 (LOX IMVI) | GI50 (EKVX) | GI50 (HOP-62) | GI50 (SNB-75) |
| --- | --- | --- | --- | --- | --- | --- | --- | --- | --- | --- | --- | --- | --- | --- | --- | --- | --- | --- | --- |
| CC(C)CNc1nc2ncnc(N)c2[nH]1 | > 100 µM (inactive) | 56.8 µM (inactive) | > 100 µM (inactive) | > 100 µM (inactive) | > 100 µM (inactive) | > 100 µM (inactive) | > 100 µM (inactive) | > 100 µM (inactive) | > 100 µM (inactive) | > 100 µM (inactive) | > 100 µM (inactive) | > 100 µM (inactive) | > 100 µM (inactive) | > 100 µM (inactive) | > 100 µM (inactive) | > 100 µM (inactive) | > 100 µM (inactive) | > 100 µM (inactive) |  |
| Cn1nc(-c2ccccc2)c(C(=O)/C=C/c2ccccc2)c(N2CCCC2)c1=O | 16.6 µM (inactive) | 1.64 µM (inactive) | 4.83 µM (inactive) | 12.6 µM (inactive) | 7.8 µM (inactive) | 21.4 µM (inactive) |  | 12.6 µM (inactive) | 21.2 µM (inactive) | 20.7 µM (inactive) | 16.9 µM (inactive) | 4.39 µM (inactive) |  |  | 22.5 µM (inactive) | 15.1 µM (inactive) | 20.4 µM (inactive) | 11.9 µM (inactive) |  |
| O=C(NC1CCCCC1)NC12CC3CC(CC(F)(C3)C1)C2 | > 100 µM (inactive) | 54.5 µM (inactive) | > 100 µM (inactive) | > 100 µM (inactive) | > 100 µM (inactive) | 55.3 µM (inactive) |  | > 100 µM (inactive) | > 100 µM (inactive) |  | > 100 µM (inactive) | > 100 µM (inactive) | > 100 µM (inactive) |  | 85.3 µM (inactive) | > 100 µM (inactive) | 57.7 µM (inactive) | > 100 µM (inactive) | 40.4 µM (inactive) |
| c1ccc(C2N3CCCCC3[C@@H]3c4[nH]c5ccccc5c4CCN23)cc1 (stereo not given in full) | 28 µM (inactive) | > 100 µM (inactive) |  | 17.5 µM (inactive) | 28.6 µM (inactive) | 70 µM (inactive) | 29.5 µM (inactive) | > 100 µM (inactive) | > 100 µM (inactive) | > 100 µM (inactive) | > 100 µM (inactive) | 41.2 µM (inactive) | 98.9 µM (inactive) | > 100 µM (inactive) | > 100 µM (inactive) |  | > 100 µM (inactive) | > 100 µM (inactive) | 57.9 µM (inactive) |
| Cc1c2c(cc3c1[nH]c1ccccc13)C(c1ccc(Cl)cc1)=NCC2 | 1.45 µM (inactive) | 0.716 µM (active) | 0.288 µM (active) | 0.203 µM (active) | 0.433 µM (active) | 0.644 µM (active) | 0.718 µM (active) |  | 0.944 µM (active) | 0.244 µM (active) | 0.804 µM (active) | 0.426 µM (active) | 0.991 µM (active) | 0.255 µM (active) |  | 0.424 µM (active) | 0.274 µM (active) | 0.738 µM (active) | 0.217 µM (active) |
| O=C1Oc2ccccc2C(=O)/C1=C\NC(=S)c1ccncc1 | 45.9 µM (inactive) | > 100 µM (inactive) |  | > 100 µM (inactive) |  | 45.7 µM (inactive) | > 100 µM (inactive) | 53.3 µM (inactive) | 67.1 µM (inactive) | > 100 µM (inactive) | 99.3 µM (inactive) | 95.1 µM (inactive) | > 100 µM (inactive) | > 100 µM (inactive) | > 100 µM (inactive) | > 100 µM (inactive) | > 100 µM (inactive) | 84.1 µM (inactive) | 99.3 µM (inactive) |
| CC1(C)[C@H](C(=O)O)N2C(=O)[C@@H](NS(=O)(=O)c3ccc([N+](=O)[O-])cc3)[C@H]2S1(=O)=O | > 100 µM (inactive) | > 100 µM (inactive) | > 100 µM (inactive) | > 100 µM (inactive) | > 100 µM (inactive) | > 100 µM (inactive) | > 100 µM (inactive) | > 100 µM (inactive) | > 100 µM (inactive) | > 100 µM (inactive) | > 100 µM (inactive) | > 100 µM (inactive) | > 100 µM (inactive) | > 100 µM (inactive) | > 100 µM (inactive) | > 100 µM (inactive) | > 100 µM (inactive) | > 100 µM (inactive) | > 100 µM (inactive) |
| O=c1oc(-c2ccc(O)c(O)c2)cc2cccc(O)c12 [THUNBERGINOL A] |  | 2.07 µM (inactive) | 15.4 µM (inactive) |  | 0.998 µM (active) | 14.7 µM (inactive) | 20.1 µM (inactive) | 21.4 µM (inactive) | 6.19 µM (inactive) | 14.4 µM (inactive) | 36.6 µM (inactive) | 3.42 µM (inactive) | 12.8 µM (inactive) | 27.5 µM (inactive) | 4.9 µM (inactive) |  | 14.1 µM (inactive) | 15.2 µM (inactive) | 23.1 µM (inactive) |
